One may read the melting point as the temperature of the solid-liquid transition.

Among the data in patent US7932271B2, “Heterocyclic methyl sulfone derivative” (Daiichi Pharmaceutical Co., Ltd., priority 2003, dated 2011) are melting point values, retold here.

Regarding `Cc1ccc(S(=O)(=O)NCC(=O)NCc2ccc(C(c3cc(F)ccc3F)S(=O)(=O)c3ccc(Cl)cc3)nc2)cc1` (centres unmarked) [Example 70, N-[[6-[(4-Chlorophenylsulfonyl)(2,5-difluorophenyl)methyl]pyridin-3-yl]methyl]-2-(4-methylphenylsulfonylamino)acetamide], the melting point was in the range of 217 to 218 °C. As for `COc1cccnc1C(c1cc(F)ccc1F)S(=O)(=O)c1ccc(Cl)cc1` (centres unmarked) [Example 17, 2-[[(4-Chlorophenyl)sulfonyl]-(2,5-difluorophenyl)methyl]-3-methoxypyridine], the melting point fell in the range of 184 to 185 °C. Compound `O=C1NCCCN1c1cc(C(c2cc(F)ccc2F)S(=O)(=O)c2ccc(Cl)cc2)c(Cl)cn1` (centres unmarked) [Example 190, 1-[5-Chloro-4-[(4-chlorophenylsulfonyl)-(2,5-difluorophenyl)methyl]pyridin-2-yl]tetrahydropyrimidin-2-one] yielded a melting point of more than 230 °C. Regarding `O=S(=O)(c1ccc(Cl)cc1)C(c1ccccn1)c1cc(F)ccc1F` (centres unmarked) [Example 13, 2-[[(4-Chlorophenyl)sulfonyl]-(2,5-difluorophenyl)methyl]pyridine], the melting point is 171 to 172 °C. `O=S(=O)(c1ccc(Cl)cc1)C(c1ccc(CN2CCOCC2)cn1)c1cc(F)ccc1F` (centres unmarked) [Example 49, 4-[[6-[(4-Chlorophenylsulfonyl)-(2,5-difluorophenyl)methyl]pyridin-3-yl]methyl]morpholine]: the melting point fell in the range of 120 to 121 °C. `Nc1cc(C(c2c(F)cccc2F)S(=O)(=O)c2ccc(Cl)cc2)c(Cl)cn1` (centres unmarked) [Example 296, 5-Chloro-4-[(4-chlorophenylsulfonyl)(2,6-difluorophenyl)methyl]pyridin-2-ylamine] came in with a melting point of 179 to 181 °C. For `O=S(=O)(c1ccc(Cl)cc1)C(c1cc(F)ccc1F)c1cc(NCCCNc2ncccn2)ncc1Cl` (centres unmarked) [Example 175, N-[5-Chloro-4-[(4-chlorophenylsulfonyl)-(2,5-difluorophenyl)methyl]pyridin-2-yl]-N′-(pyrimidin-2-yl)propane-1,3-diamine] the value was 176 to 178 °C; for `O=S(=O)(c1ccc(Cl)cc1)C(c1ccc(CN2CCCCC2)cn1)c1cc(F)ccc1F` (centres unmarked) [Example 48, 2-[(4-Chlorophenylsulfonyl)-(2,5-difluorophenyl)methyl]-5-(piperidin-1-ylmethyl)pyridine], 113 to 114 °C. As for `Cc1cnc(NS(C)(=O)=O)cc1C(c1cc(F)ccc1F)S(=O)(=O)c1ccc(Cl)cc1` (centres unmarked) [Example 212, N-[4-[(4-Chlorophenylsulfonyl)(2,5-difluorophenyl)methyl]-5-methylpyridin-2-yl]methanesulfonamide], the melting point lay in the range of 214 to 217 °C. `NC(=O)/C=C/c1ccc(C(c2cc(F)ccc2F)S(=O)(=O)c2ccc(Cl)cc2)nc1` (centres unmarked) [Example 136, (E)-3-[6-[(4-Chlorophenylsulfonyl)(2,5-difluorophenyl)methyl]pyridin-3-yl]acrylamide] displayed a melting point of 219 to 220 °C. `CS(=O)(=O)NCCCNc1cc(C(c2cc(F)ccc2F)S(=O)(=O)c2ccc(Cl)cc2)c(Cl)cn1` (centres unmarked) [Example 189, N-[3-[[5-Chloro-4-[(4-chlorophenylsulfonyl)-(2,5-difluorophenyl)methyl]pyridin-2-yl]amino]propyl]methanesulfonamide]: the melting point lay within 138 to 139 °C. `Fc1ccc(SC(c2cc(F)ccc2F)c2cc(Cl)ncc2Cl)cc1` (centres unmarked) [Example 177, 2,5-Dichloro-4-[(2,5-difluorophenyl)-(4-fluorophenylthio)methyl]pyridine] yielded a melting point of 95 to 97 °C. In turn, `O=C(O)CCCc1cc(C(c2cc(F)ccc2F)S(=O)(=O)c2ccc(Cl)cc2)c(Cl)cn1` (centres unmarked) [Example 289, 4-[5-Chloro-4-[(4-chlorophenylsulfonyl)(2,5-difluorophenyl)methyl]pyridin-2-yl]butyric acid] displayed a melting point of 147 to 148 °C. Compound `CN1CCC(C(c2ccncc2)S(=O)(=O)c2ccc(Cl)cc2)CC1` (centres unmarked) [Example 5, 4-[(4-Chlorophenylsulfonyl)(1-methylpiperidin-4-yl)methyl]pyridine] displayed a melting point of 176 to 177 °C.
